Series [1] has as its system anti-BCMA CAR-T cells. Kind of series: Lenalidomide on cytokine secretion of anti-BCMA CAR-T cells co-cultured with JeKo-1. Particulars: overnight culture with JeKo-1, 2:1 effector to target; all concentrations tested. Type of series: cell-based, human. The source says:
Addition of Lenalidomide to the co-culture media led to enhanced cytokine secretion of multiple effector cytokines, among them IFN-γ and TNF-α following CAR-T cell engagement by the BCMA expressing target cell line (FIG. 1C).

Another series has as its system PBMCs. Kind of series: MLR assay (mixed lymphocyte reaction) with Lenalidomide. Type of series: cell-based, human. The procedure: Next, allo-reactivity towards edited T cells (B2M^neg/TCR^neg) was tested using an MLR assay (mixed lymphocyte reaction). In this assay PBMCs (“responder cells”) were mixed with irradiated auto or allo T cells (“stimulator cells”). At the end of the assay, the activation of the responder cells was evaluated by measuring the cell proliferation in the co-culture, with cell proliferation serving as a proxy for immune activation. In the assay shown in FIG. 19C, both auto (donor 1) & allo (donor 2 & 3) were evaluated for immune activation following co-culture. […] As expected, immune activation was reduced upon deletion of B2M & TRAC from the T cells, as evident by the reduced proliferation in both donors tested.

Series [2] relates to NK cells. Kind of series: NK cytotoxicity towards B2Mneg T cells with Lenalidomide. Type of series: cell-based, human. Particulars: overnight co-culture; wide range of Lenalidomide concentrations. The protocol:
Two modes of allogenic immune recognition were tested: immune recognition of B2M^neg cells by NK cells, and immune recognition by allogenic T cells. Examination of the cytotoxic activity of NK cells towards B2M^neg cells was tested following overnight (ON) co-culture in varying concentrations of NK to T cells, and varying concentrations of Lenalidomide. Increasing concentration of NK to B2M^neg T cells led to an increase in the cytotoxic activity of NK cells towards B2M^neg T cells.

In series [3] the test system is anti-BCMA CAR-T cells. The series can be described thus: Cytokine secretion of CAR-T cells produced in the presence of Lenalidomide, co-culture with JeKo-1. It is filed as cell-based, human. The conditions noted are these: Lenalidomide 0.5, 2 & 10 uM during ~10 day production; JeKo-1 at 0.5:1 effector to target, no Lenalidomide in assay. The procedure:
PBMCs were thawed and activated by T cell activation agents to enrich for T cells. After 3 days, T cells were edited for B2M and TRAC knock-out using a CRISPR/Cas gene editing system. An anti-BCMA expression cassette (as an exemplary CAR construct) was knocked into the TRAC locus to produce anti-BCMA CAR-T cells. Following the editing procedure, resulting T cells were expanded in the presence of absence of Lenalidomide in a concentration of 0.5, 2, & 10 uM for approximately 10 days. The resulting cells were later evaluated for cytokine secretion following antigen stimulation, in the absence of Lenalidomide.
The inclusion of Lenalidomide […] led to enhanced cytokine secretion of multiple effector cytokines, among them IFN-γ and TNF-α, upon CAR-T engagement by the BCMA expressing target cell line (FIG. 20).

For series [4] the following is noted: lenalidomide-treated subjects; prescribing information; cited from earlier work.
The subject of series [5] is anti-BCMA CAR-T cells. The series can be described thus: Impact of Lenalidomide on editing efficiency and CD4/CD8 ratio of CAR-T cells. Particulars: day 8. It is filed as cell-based, human. The protocol:
Editing efficiency, including TRAC−%, B2M−% and CAR+% were assessed at day 7/8 and/or day 13/14 with anti-BCMA CAR-T cells. […] Anti-BCMA CAR-T cells were not harvested around day 14 due to slower growth rate. About 51-58% of CAR+%, 96% TRAC−% and 75-77% of B2M−% were detected from anti-BCMA CAR-T cells with or without Lenalidomide treatment.
CD4% and CD8% were assessed at day 7/8 and/or day 13/14 with the anti-BCMA CAR-T cells disclosed above. […] The anti-BCMA CAR-T cells were not assessed and harvested around day 14 due to slower expansion. Compared with Lenalidomide untreated anti-BCMA CAR-T cells, there was dose-dependent increase of CD8 positive cells, ranging from 7-15%. […] Expansion scale (small or medium) didn't impact the CD4 and CD8 phonotype.

Series [6] deals with NK cells. Kind of series: Cytokine secretion in co-culture of NK cells with K562 cells with Lenalidomide. It is filed as cell-based, human. The procedure: (§1) Additionally, cytokine secretion was tested at the end of the co-culture described above, following co-culture of NK cells with B2M^neg T cells, K562 cells (a B2M^neg cell line, commonly used as a positive control for activation of NK cells due to lack of B2M expression), and unedited T cells (used as a negative control for NK cells activation).

Series [7] concerns anti-BCMA CAR-T cells. The series can be described thus: Lenalidomide on in vitro expansion and senescence (CD57) of anti-BCMA CAR-T cells.
The subject of a further series is MM.1S tumors. The series can be described thus: Lenalidomide plus anti-BCMA CAR-T cells in MM.1S subcutaneous tumor model. Particulars: single arm: 3 million CAR-T cells, or Lenalidomide 1.5 or 10 mg/kg.
For series [8], the system named is NK cells. Kind of series: Cytokine secretion in co-culture of NK cells with B2Mneg T cells with Lenalidomide. It is filed as cell-based, human. The protocol: as §1
Series [9] deals with T1, biotinylated recombinant human BCMA (Acro Biosystems Cat: #BC7-H82F0) (human, UniProt Q02223 1-54, biotinylated).
T1 construct: Bought reagent
T1 sequence (looked up): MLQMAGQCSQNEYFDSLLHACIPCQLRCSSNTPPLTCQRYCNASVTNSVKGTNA
The series can be described thus: flow cytometry of CTX120 cells, detection of the surface CAR with biotinylated BCMA and fluorescent streptavidin. A general note: In flow cytometry, cells or beads pass a laser one at a time.

The target in the next series is T2, mouse BCMA (mouse, UniProt O88472 1-49, limits assumed).
T2 construct: also called murine BCMA
T2 chain (looked up): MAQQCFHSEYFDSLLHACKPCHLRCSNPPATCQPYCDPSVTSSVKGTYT
The series can be described thus: not described (statement in Example 5).

Regarding `Nc1cccc2c1CN(C1CCC(=O)NC1=O)C2=O` (stereo not shown) [Lenalidomide], the “effector cytokine secretion upon antigen stimulation” value is given as “enhanced effector cytokine secretion upon antigen stimulation” in the series with anti-BCMA CAR-T cells [1] and “enhance effector cytokine secretion upon antigen stimulation” with anti-BCMA CAR-T cells [3]. Also, the “proliferation upon allo co-culture with edited T cells” value in the series on PBMCs (edited (B2Mneg/TCRneg) stimulator T cells) is “minimal changes upon addition of Lenalidomide to the co-culture”. Further, the “allo reactivity towards unedited T cells” value in the series with PBMCs (unedited stimulator T cells, donor 2) is “may in some cases enhance allo reactivity towards unedited T cells”. Also, the “NK cell killing of B2Mneg T cells” value in the series on NK cells [2] is “did not lead to an increased cell killing of the B2M^neg T cells”. The “grade 3 or 4 neutropenia” value in series [4] was “up to 59%”. Further, the “grade 3 or 4 thrombocytopenia” value in series [4] is recorded as “up to 38%”. For the same molecule, in the series on anti-BCMA CAR-T cells [5], the “overall distribution of CD4 and CD8 cells” value is “not significantly altered”. Moreover, the “dose-dependent increase of CD8 positive cells” value in the series on anti-BCMA CAR-T cells [5] (compared with Lenalidomide untreated cells) is listed as 7-15%. Besides, the cytokine secretion entry in the series with NK cells [6] is recorded as “Upregulation of secretion of several cytokines”; with NK cells [8] it was “minimal changes were observed upon addition of Lenalidomide”. In addition, in the series with anti-BCMA CAR-T cells [7] (0.5 uM to 10 uM Lenalidomide), the “higher expansion of anti-BCMA CAR-T cells” value is 5-30 fold. In addition, the “senescence marker CD57 expression” value in the series on anti-BCMA CAR-T cells [7] (all tested concentrations, 10 day culture) was “reduced expression of CD57”. Moreover, the “effect on tumor regression and mouse survival compared to no treatment arm” value in the series with MM.1S tumors is “minimal effect on both tumor regression and mouse survival”.

B1: anti-BCMA CAR (CTX-166b) expressed on CTX120 cells (other)
chain: QVQLVQSGAELKKPGASVKVSCKASGNTLTNYVIHWVRQAPGQRLEWMGYILPYNDLTKYSQKFQGRVTITRDKSASTAYMELSSLRSEDTAVYYCTRWDWDGFFDPWGQGTTVTVSSGGGGSGGGGSGGGGSEIVMTQSPATLSVSPGERASISCRASQSLVHSNGNTHLHWYQQRPGQAPRLLIYSVSNRFSEVPARFSGSGSGTDFTLTISSVESEDFAVYYCSQTSHIPYTFGGGTKLEIKSAAAFVPVFLPAKPTTTPAPRPPTPAPTIASQPLSLRPEACRPAAGGAVHTRGLDFACDIYIWAPLAGTCGVLLLSLVITLYCNHRNRKRGRKKLLYIFKQPFMRPVQTTQEEDGCSCRFPEEEEGGCELRVKFSRSADAPAYQQGQNQLYNELNLGRREEYDVLDKRRGRDPEMGGKPRRKNPQEGLYNELQKDKMAEAYSEIGMKGERRRGKGHDGLYQGLSTATKDTYDALHMQALPPR
notes: also called CTX120 anti-BCMA CAR; CTX120 CAR
As for B1, the figures for the binding result (in series [9]; in the series with mouse BCMA) were “binds” and “no binding”, respectively.

The values are drawn from patent publication US20220202859A1, “CANCER TREATMENT USING CD38 INHIBITOR AND/OR LENALIDOMIDE AND T-CELLS EXPRESSING A CHIMERIC ANTIGEN RECEPTOR” (CRISPR THERAPEUTICS AG, priority 2020, published 2022).
